PMC10826971, “Evaluating protein cross-linking as a therapeutic strategy to stabilize SOD1 variants in a mouse model of familial ALS” (PLOS Biology, 2024)
Values after ≈ are worked out from the molar mass of the structure shown. “Also recorded” adds a separate entry of the source.

Tests used:
fALS SOD1 variants = assay: Size exclusion chromatography (SEC) under native conditions; design: species or system human
Experimental: We have analyzed samples with and without cross-linker via SEC with high performance liquid chromatography (SEC-HPLC) to assess the SOD1 protein composition in its native state. […] For inducing aggregation, all samples (final conc. 1 μm) were incubated at 37°C for 1 h prior the SEC analysis. […] An isocratic mobile phase consisting of 100 mM sodium phosphate, 200 mM sodium chloride (pH 7.4) was used for 6 min to analyze each sample at wavelength of 280 nm. Waters BEH 200 standard was injected at the beginning, middle, and at the end to confirm the retention time was not shifting throughout the entire experiment.

[1] = MTT cell viability/cytotoxicity assay; type: cell-based; conditions: human, Hep G2 cells
Experimental: The Hep G2 human hepatocarcinoma cell line (American Type Culture Collection, ATCC, Manassas, Virginia, USA) was cultured using EMEM (Eagle’s minimal essential medium, ATCC) supplemented with 10% FBS (fetal bovine serum, ATCC) and 1% penicillin streptomycin as previously described (10,000 units/mL penicillin and 10,000 μg/mL streptomycin, Fisher scientific, Hampton, New Hampshire, USA). The cells were grown and subcultured around 72 h at 37°C, 5% CO2 under controlled humidity. The cells growth and morphology were inspected using an inverted Carl Zeiss microscope (Carl Zeiss Microscopy LLC, White Plains, New York, USA).
Using manufacturer’s instructions, Hep G2 cells were cultured for 24 h with a density of 2 × 10^5 cells/mL in a 96-well culture plate at 37°C, 5% CO2 under controlled humidity. […] Cell cytotoxicity was performed via the MTT (3-(4,5-dimethylthiazol-2-yl)-2,5-diphenyltetrazolium bromide) assay at 570 nm absorbance using BioTek synergy H1 (Vermont, USA) plate reader according to previously published paper. The MTT stock was made at 5 mg/mL using 0.9% sodium chloride solution which was purchased from Sigma Aldrich (St. Louis, Missouri, USA). Twenty-four hours after dosing the plate, the cultured medium was aspirated and replaced with the equal volume of MTT solution (10× dilution using EMEM complete media). The plate was incubated for 4 h (37°C, 5% CO2). The MTT solution was replaced by the equal amount of acidified isopropanol (0.3% hydrochloric acid (v/v)) and then formed formazan was dissolved by shaking the plate gently for 30 min. The absorbance was measured at 570 nm for both the samples and acidified isopropanol for background calculation. Chlorpromazine and cells with 0.1% DMSO were used as positive control and vehicle, respectively. The cell viability of each concentration was measured by normalizing against mean value of cells with 0.1% DMSO (vehicle).

[2] = target: T1, EGFP-labeled SOD1 (wild-type, fALS variants, Cys111Ser, F50E/G51E) (Homo sapiens, UniProt P00441, F51E/G52E); assay: Immunoblotting for SOD1-EGFP cross-linking in NSC-34 cells; type: cell-based, mouse NSC-34 cells; conditions: 20 μm S-XL6
T1 construct: expressed in transfected cells; host or cells: NSC-34 mouse neuroblastoma/motor neuron hybrid cells
T1 sequence (P00441 2-154 F51E/G52E): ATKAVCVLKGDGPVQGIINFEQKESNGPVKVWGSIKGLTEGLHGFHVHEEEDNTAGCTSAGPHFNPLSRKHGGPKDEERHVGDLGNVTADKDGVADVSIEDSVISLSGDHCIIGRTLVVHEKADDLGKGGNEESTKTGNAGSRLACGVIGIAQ
Experimental: (§1) Mouse neuroblastoma/motor neuron hybrid cells (NSC-34) were cultured and maintained as previously described. Briefly, NSC-34 cells were cultured in Dulbecco’s Modified Eagle’s Medium with F12 supplement (DMEM/F12, Invitrogen Australia) containing 10% (v/v) heat-inactivated fetal bovine serum (FBS, Bovogen Biologicals, Australia) and 2 mM L-Glutamine (Invitrogen, Australia). Cells were passaged using 0.25% trypsin, 0.02% EDTA (Invitrogen, Australia). Cells were maintained within humidified incubators at 37°C with 5% CO2.
(§2) To transfect NSC-34 cells, they were first plated out to 40% confluency in either 6-well or 12-well tissue culture-treated plates and cultured for 24 h. Following this, TransIT-X2 reagent (Mirus Bio, USA) was used according to the manufacturer’s instructions to transfect NSC-34’s (1 μg DNA per well for 12-well plates, 2.5 μg per well for a 6-well plate). Cells were then incubated for 8 h prior to replating for experiments into other plates or chambers.
(§3) Transfected NSC-34 cells were plated out into 12-well plates and left overnight. […] Cells were then harvested via aspiration and pelleted (300 × g). Lysis and immunoblots were carried out as previously described. Briefly, cell pellets were lysed in ice-cold lysis buffer containing protease inhibitors (Thermo Fisher, USA) and N-ethylmaleimide (NEM) at a final concentration of 1 mg/mL. Protein concentration was measured by DC assay (BioRad, Australia) and samples were denatured in SDS-sample buffer containing 40 mM NEM at 90°C for 5 min. Lysates were loaded into 26-lane stain-free gels (BioRad, Australia) and electrophoresed. Proteins were transferred to 0.2 μm PVDF membranes for 1 h at 4°C. Membranes were blocked in 5% skim milk in TBST for 1 h prior to addition to primary antibody which as a rabbit anti-GFP antibody (ab290, 1:5,000, Abcam USA) and incubated overnight at 4°C. Membranes were washed 3× and then incubated for 1 h at room temperature in secondary antibody (goat anti-rabbit HRP conjugate at 1:5,000 (catalog no.: P0448; Dako). Membranes were then washed 3× prior to developing with SuperSignal West Pico Plus substrate (Thermo Fisher Scientific).

[3] = system: EGFP-labeled SOD1 (wild-type, fALS variants, Cys111Ser, F50E/G51E); assay: as above; type: cell-based, mouse NSC-34 cells
Experimental: as §1, §2, §3

[4] = Blood-brain barrier penetration; type: in vivo, mouse
Maximum solubility = type: physicochemical; conditions: pH 7.4, aqueous buffer
SOD1^G93A = SOD1^G93A (Homo sapiens, UniProt P00441, G94A); assay: Pharmacodynamic profiling: cross-linked SOD1^G93A dimer in blood (RBC) by LC-MS; type: in vivo, mouse; design: Extraction of SOD1^G93A from red blood cell (RBC) protein was performed as previously described; tissue Jackson Laboratory 002726; host or cells: red blood cells of transgenic B6SJL-Tg(SOD1*G93A)1Gur/J mice; conditions: for % Dimer (cross-linked SOD1^G93A in blood): 10 mg/kg IV single dose
SOD1^G93A, sequence (P00441 2-154 G94A limits assumed): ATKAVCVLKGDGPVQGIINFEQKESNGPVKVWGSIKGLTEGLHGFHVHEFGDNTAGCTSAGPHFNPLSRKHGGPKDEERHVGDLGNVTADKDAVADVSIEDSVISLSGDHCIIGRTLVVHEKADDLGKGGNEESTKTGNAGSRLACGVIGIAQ

[O-][S+]1CCCCS1 (centres unmarked) [S-XL6, 1,2-dithiane-1-oxide]
monomeric population of fALS variants after S-XL6 treatment (fALS SOD1 variants): decreased | large (>1,000 kDa) aggregates after S-XL6 treatment (fALS SOD1 variants; all fALS variants tested): diminished | viability at 24 h, 10 µM ([1]; 10 µM, read-out: viable cells compared to vehicle control (MTT)): 125% | viability at 24 h, 100 µM ([1]; 100 µM, read-out: viable cells compared to vehicle control (MTT)): 102% | viability at 24 h, 150 µM ([1]; 150 µM, read-out: viable cells compared to vehicle control (MTT)): 90% | viability at 24 h, 250 µM ([1]; 250 µM, read-out: viable cells compared to vehicle control (MTT)): 79% | viability at 24 h, 400 µM ([1]; 400 µM, read-out: viable cells compared to vehicle control (MTT)): 72% | viability at 24 h, 600 µM ([1]; 600 µM, read-out: viable cells compared to vehicle control (MTT)): 15% | viability at 24 h, 800 µM ([1]; 800 µM, read-out: viable cells compared to vehicle control (MTT)): 14% | viability at 24 h, 1000 µM ([1]; 1000 µM, read-out: viable cells compared to vehicle control (MTT)): 14% | CC50 at 24 h ([1]; MTT, read-out: Cytotoxicity LC50): ~446 µM | binding to the constitutively monomeric variant (F50E/G51E) [2]: lack of binding | cross-linking yield compared to leading cyclic thiosulfinates (Comp 2–5) [3]: highest cross-linking yield; also recorded: most effective compound | off-product with EGFP-wild-type and EGFP-D90A SOD1 [3]: high-molecular weight species consistent with trimeric SOD1 | blood–brain barrier crossing ([4]; fALS mouse model): crosses the blood–brain barrier | log BB at 1 h ([4]; transgenic SOD1^G93A, mouse, brain/blood, subcutaneous, 30 mg/kg): 0.02 | Kp at 1 h ([4]; transgenic SOD1^G93A, mouse, brain/blood, subcutaneous, 30 mg/kg, read-out: % BBB penetration): 0.0002 | solubility (Maximum solubility): 360 mM (≈ 49 mg/mL) | % Dimer (cross-linked SOD1^G93A in blood) (SOD1^G93A; 0.5 h post dose): 38% | % Dimer (cross-linked SOD1^G93A in blood) (SOD1^G93A; 1 h post dose): 63% | % Dimer (cross-linked SOD1^G93A in blood) (SOD1^G93A; 2 h post dose): 55% | % Dimer (cross-linked SOD1^G93A in blood) (SOD1^G93A; 4 h post dose): 53% | % Dimer (cross-linked SOD1^G93A in blood) (SOD1^G93A; 8 h post dose): 51% | % Dimer (cross-linked SOD1^G93A in blood) (SOD1^G93A; 12 h post dose): 42% | % Dimer (cross-linked SOD1^G93A in blood) (SOD1^G93A; 24 h post dose): 26% | % Dimer (cross-linked SOD1^G93A in blood) (SOD1^G93A; 48 h post dose): 20% | % Dimer (cross-linked SOD1^G93A in blood) (SOD1^G93A; 72 h post dose): 16% | % Dimer (cross-linked SOD1^G93A in blood) (SOD1^G93A; […] post dose): 6% | Target engagement in blood and brain (SOD1^G93A; G93A fALS mouse): SOD1 dimer formation in G93A fALS mouse blood and brain
